Article PMC9124866, “Structure-Activity Relationships of Dopamine Transporter Pharmacological Chaperones” (Frontiers in Cellular Neuroscience, 2022)

These compounds were tested against YFP-HA-βlac-DAT (Homo sapiens, UniProt Q01959) (assay: β-lactamase (βlac) surface expression assay). Details: HEK293, HEK cells expressing YFP-HA-βlac-DAT, overnight (16 h) incubation, up to 100 μM, normalized to vehicle; assumed effective EMax; read-out: EMax (%), WT DAT surface expression.
Sequence of YFP-HA-βlac-DAT (Q01959 1-171 limits assumed): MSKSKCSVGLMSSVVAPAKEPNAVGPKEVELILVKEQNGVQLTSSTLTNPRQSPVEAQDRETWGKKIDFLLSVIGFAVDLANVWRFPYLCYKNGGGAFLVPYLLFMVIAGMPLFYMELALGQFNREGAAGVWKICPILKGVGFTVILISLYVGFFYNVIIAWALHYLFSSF
Sequence of YFP-HA-βlac-DAT (Q01959 237-620 limits assumed): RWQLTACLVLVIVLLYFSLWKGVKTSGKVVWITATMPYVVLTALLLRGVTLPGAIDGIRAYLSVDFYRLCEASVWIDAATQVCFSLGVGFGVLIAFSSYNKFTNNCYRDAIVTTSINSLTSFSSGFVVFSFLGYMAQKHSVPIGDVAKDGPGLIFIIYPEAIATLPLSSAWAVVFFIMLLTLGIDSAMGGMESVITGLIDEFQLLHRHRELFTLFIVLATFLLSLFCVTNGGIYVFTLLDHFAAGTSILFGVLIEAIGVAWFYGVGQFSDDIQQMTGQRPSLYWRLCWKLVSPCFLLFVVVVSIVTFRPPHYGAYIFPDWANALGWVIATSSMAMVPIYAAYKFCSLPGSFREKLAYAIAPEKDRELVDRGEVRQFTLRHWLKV
Type: cell-based
Method: The βlac surface expression assay was performed by following the method outlined in [Lam et al. (2013)] and [Beerepoot et al. (2015], [2016)]. The assay substrate nitrocefin (BD biosciences) was dissolved in dimethyl sulfoxide (DMSO) at a concentration of 10 mM and frozen at −80°C. Immediately before use, it was thawed and diluted to a final concentration of 100 μM in phosphate buffered saline (PBS). Cells (1 × 10^5/well) were seeded into a poly-D-lysine-coated 48-well plate and incubated for 24 h, prior to drug treatment. Drugs were added to individual wells at varying concentrations and incubated for 16 h. Subsequently, the media was aspirated, and the cells were washed twice with PBS. After removal of the final PBS wash, 200 μL of the nitrocefin solution was added to each well and the absorbance was immediately read. The EPOCH microplate spectrophotometer (BioTek) was used to measure absorbance (486 nm) for each well every minute for 30 min. The rate of reaction (slope of the curve) was used as the readout for the assay ([Beerepoot et al., 2015]). To determine suitable concentration ranges for each drug, they were dissolved in PBS or DMSO at the highest concentration possible. From here, the solutions were serial diluted 1/10 to yield 8 different concentrations. βLAC cells were then treated with the varying drug concentrations and cell viability was recorded using light microscopy. For additional measure, nitrocefin was added and the absorbance was read. For certain cases, Trypan Blue was used to quantitatively differentiate increased cell death from reduced cell division. […] Five or six doses were generally used in subsequent dosing experiments, starting at the highest non-toxic concentration.
Data analysis was performed using GraphPad Prism (GraphPad Software, La Jolla, CA). Linear regression analysis was performed on βLAC time points to determine the slope, thus the rate of reaction, for comparison. Furthermore, the slope was also used to determine the degree of dopamine uptake in the dopamine uptake assays. Non-linear regression, fitting to the log(agonist) vs. response and log(inhibitor) vs. response model curve, was used to determine dose-response relationships of surface expression and uptake assays, respectively. One-way ANOVA with Dunnett’s post hoc-test was used for the β-lactamase assay and one-way ANOVA with Bonferroni correction was used for western blot analysis.
Among these were RTI-1, RTI-2, RTI-5, RTI-6, RTI-11, RTI-20, and PAL-1007. […] The EMax values of all the analyzed drugs are included in Figure 1.
The pharmacological chaperone ability of the 15 ibogaine and tryptamine analogs, shown in Figure 3, were measured using the βlac surface expression assay. HEK cells expressing YFP-HA-βlac-DAT were incubated overnight with these compounds at concentrations varying by log and half-log dilutions, starting at 100 μM final concentration. […] Furthermore, it was important to determine whether the β-carboline analogs could also elicit a chaperone effect because they are not classified as DAT ligands ([Cao et al., 2007]). […] Removing the nitrogen from the ring reduced efficacy as observed with frovatriptan (103 ± 1.4%). […] Evodiamine (54 ± 1.7%) had no chaperone ability and caused a substantial reduction in the surface expression of DAT. Dose-response curves were generated to assess the pharmacological chaperone potencies of select compounds (Figure 4).
`CC(NC1CC1)C(=O)c1cccc(Cl)c1` (centres unmarked) [PAL-433] was tested, and the Emax was 93 ± 10.4%.
`CC(NC1CCC1)C(=O)c1c[nH]c2ccccc12` (centres unmarked) [PAL-1407] gave an Emax of 98 ± 3.9%.
Compound `Cc1cccc(C(=O)C(C)NC2CCC2)c1` (centres unmarked) [PAL-1411] has an Emax of 110 ± 4.5%.
Work on `NCCc1c[nH]c2ccccc12` [Tryptamine, tryptamine, reference compound] yielded an Emax of 104 ± 1.6%.
Compound `Cc1ccc(C(=O)C(C)N)cc1` (centres unmarked) [PAL-1270] has an Emax of 104 ± 2.3%.
Compound `CC(NC1CC1)C(=O)c1ccc(F)c(Cl)c1` (centres unmarked) [PAL-819] has an Emax of 90 ± 5%.
`CC(C(=O)c1cccc(Cl)c1)N(C)C` (centres unmarked) [RTI-8] showed an Emax of 107 ± 6.3%.
Compound `CCC(NC(C)(C)C)C(=O)c1cccc(Cl)c1` (centres unmarked) [RTI-11] has an Emax of 131 ± 3.7%.
Work on `COc1ccc2c3c([nH]c2c1)CCN(C)CC3` [Tabernanthalog, tabernanthalog] yielded an Emax of 179 ± 9.1%.
`CC(C(=O)c1cccc(Cl)c1)N1CCCCC1` (centres unmarked) [RTI-7] gave an Emax of 102 ± 3.9%.
With `CC1NC(C)(C)COC1(O)c1cc(F)cc(F)c1` (centres unmarked) [RTI-18] the Emax was 122%.
`C[C@@H](NC1CCC1)C(=O)c1cccc(Cl)c1` [PAL-1132] showed an Emax of 110%.
For `Cc1ccc(C(=O)C(C)NC(C)(C)C)cc1Cl` (centres unmarked) [RTI-20], the Emax was 147 ± 8%.
`CC(NC(C)(C)C)C(=O)c1ccc(Cl)cc1` (centres unmarked) [RTI-3] showed an Emax of 113 ± 6.2%.
For `C[C@H](NC1CCC1)C(=O)c1cccc(Cl)c1` [PAL-1134], the Emax was 98%.
With `CN1CCc2[nH]c3ccc(O)cc3c2CC1` [Noribogainalog, noribogainalog] the Emax was 185 ± 17.9%.
`CC(NC1CC1)C(=O)c1cccc(Br)c1` (centres unmarked) [PAL-586] showed an Emax of 93 ± 5.8%.
Work on `CC1NC(C)(C)COC1(O)c1cc(Cl)cc(Cl)c1` (centres unmarked) [RTI-21] yielded an Emax of 103 ± 3.7%.
Compound `CC(NC(C)(C)C)C(=O)c1ccc(F)c(F)c1` (centres unmarked) [RTI-13] has an Emax of 99 ± 4.3%.
`CN1CCc2[nH]c3ccccc3c2CC1` [Ibogaminalog] showed an Emax of 175 ± 12.9%.
`CC(NC1CCC1)C(=O)c1cccc(Cl)c1` (centres unmarked) [PAL-1007] gave an Emax of 136 ± 9.1%.
`CC(NC(C)(C)C)C(=O)c1cc(Cl)cc(Cl)c1` (centres unmarked) [RTI-17] gave an Emax of 78 ± 2.8%.
Work on `CC(NC(C)(C)C)C(=O)c1ccc(Cl)c(Cl)c1` (centres unmarked) [RTI-4] yielded an Emax of 110 ± 5.7%.
Compound `CC(C(=O)c1cccc(Cl)c1)N(C)C(C)(C)C` (centres unmarked) [RTI-9] has an Emax of 87 ± 14.6%.
Compound `CC(NC(C)(C)C)C(=O)c1cccc(F)c1` (centres unmarked) [PAL-1466] has an Emax of 100%.
`Cc1cccc(C(=O)C(C)NC(C)(C)C)c1` (centres unmarked) [RTI-6] showed an Emax of 134 ± 9.6%.
In the case of `CC(NC1CCC1)C(=O)c1ccc2c(c1)OCO2` (centres unmarked) [PAL-1414], the Emax is reported as 102%.
For `CC(NC(C)(C)C)C(=O)c1ccccc1` (centres unmarked) [PAL-1463], the Emax was 117%.
With `CC(C)NC(C)C(=O)c1cccc(Cl)c1` (centres unmarked) [PAL-1467] the Emax was 100 ± 4%.
`CC(NC1CC1)C(=O)c1cccc(C(F)(F)F)c1` (centres unmarked) [PAL-1178] gave an Emax of 92 ± 1.2%.
For `Cc1ccc(C(=O)C(C)N(C)Cc2ccccc2)cc1` (centres unmarked) [PAL-945], the Emax was 85%.
In the case of `CC(Cc1cccc(Cl)c1)NC(C)(C)C` (centres unmarked) [PAL-1468], the Emax is reported as 117%.
`COc1cccc(C(=O)C(C)NC(C)(C)C)c1` (centres unmarked) [PAL-1465] was tested, and the Emax was 91%.
Work on `CC(C)N(CCc1c[nH]c2cccc(O)c12)C(C)C` [PAL-1416] yielded an Emax of 127 ± 6.6%.
Work on `CC(NC1CCC1)C(=O)c1ccccc1` (centres unmarked) [PAL-933] yielded an Emax of 114 ± 2.3%.
Work on `CC(NC(C)(C)C)C(=O)c1ccc(Br)cc1` (centres unmarked) [RTI-2] yielded an Emax of 127 ± 2.6%.
`COc1ccc2[nH]c3c(c2c1)CCN(C)CC3` [Ibogainealog, ibogainealog] showed an Emax of 169 ± 13.7%.
`CNC(C)C(=O)c1cccc(C)c1` (centres unmarked) [PAL-1101] showed an Emax of 105 ± 3.6%.
With `CCCN(CCC)CCc1c[nH]c2ccc(OC)cc12` [PAL-709] the Emax was 97 ± 7.2%.
Work on `CC(NC(C)(C)C)C(=O)c1cccc(Br)c1` (centres unmarked) [RTI-1] yielded an Emax of 161 ± 2.7%.
`CC(NC1CCC1)C(=O)c1cccc(F)c1` (centres unmarked) [PAL-1008] showed an Emax of 96 ± 7.3%.
`COc1cccc(C(=O)C(C)NC2CC2)c1` (centres unmarked) [PAL-789] was tested, and the Emax was 93 ± 10.6%.

Same assay, conditions: HEK293, HEK cells expressing YFP-HA-βlac-DAT, overnight incubation, normalized to vehicle; read-out: EMax (%), WT DAT surface expression
`CN[C@@H](C)[C@H](O)c1ccccc1` [Ephedrine, ephedrine, reference compound] was tested, and the Emax was 128 ± 4.7%.

Same assay, conditions: HEK293, read-out: EMax (%), WT DAT surface expression, HEK cells expressing YFP-HA-βlac-DAT, overnight (16 h) incubation, up to 100 μM, normalized to vehicle; assumed effective EMax
With `CC[C@H]1C[C@@H]2C[C@H]3c4[nH]c5ccccc5c4CCN(C2)[C@@H]13` [Ibogamine, reference compound] the Emax was 202 ± 7.1%.
`COc1ccc2[nH]c3c(c2c1)CCNC3` [Pinoline, pinoline, reference compound] showed an Emax of 141 ± 4.4%.
Compound `CC1NC(C)(C)COC1(O)c1cccc(Cl)c1` (centres unmarked) [6-Hydroxybupropion, 6-hydroxybupropion, reference compound] has an Emax of 148 ± 5.4%.
With `CC(CNC(C)(C)C)C(=O)c1cccc(Cl)c1` (centres unmarked) [RTI-10] the Emax was 36 ± 1.4%.
`COc1ccc2c3c([nH]c2c1)C(C)NCC3` (centres unmarked) [Tetrahydroharmine, tetrahydroharmine] gave an Emax of 137 ± 6.8%.
`CN1CCc2[nH]c3ccc(F)cc3c2CC1` [Fluorogainalog, fluorogainalog] gave an Emax of 219 ± 29%.
`CN[C@@H]1CCc2[nH]c3ccc(C(N)=O)cc3c2C1` [Frovatriptan, frovatriptan, reference compound] showed an Emax of 103 ± 1.4%.

Same assay, conditions: HEK cells expressing YFP-HA-βlac-DAT, overnight (16 h) incubation, up to 100 μM, normalized to vehicle; assumed effective EMax
With evodiamine [reference compound] the “EMax (%), WT DAT surface expression” value was 54 ± 1.7%.

The compounds below were run against T1, WT DAT (YFP-HA-DAT) (Homo sapiens, UniProt Q01959) (assay: Western blot of mature WT DAT protein levels). Details: overnight 100 μM.
T1 construct: expressed in transfected cells; host or cells: HEK293
T1 sequence (Q01959 whole entry): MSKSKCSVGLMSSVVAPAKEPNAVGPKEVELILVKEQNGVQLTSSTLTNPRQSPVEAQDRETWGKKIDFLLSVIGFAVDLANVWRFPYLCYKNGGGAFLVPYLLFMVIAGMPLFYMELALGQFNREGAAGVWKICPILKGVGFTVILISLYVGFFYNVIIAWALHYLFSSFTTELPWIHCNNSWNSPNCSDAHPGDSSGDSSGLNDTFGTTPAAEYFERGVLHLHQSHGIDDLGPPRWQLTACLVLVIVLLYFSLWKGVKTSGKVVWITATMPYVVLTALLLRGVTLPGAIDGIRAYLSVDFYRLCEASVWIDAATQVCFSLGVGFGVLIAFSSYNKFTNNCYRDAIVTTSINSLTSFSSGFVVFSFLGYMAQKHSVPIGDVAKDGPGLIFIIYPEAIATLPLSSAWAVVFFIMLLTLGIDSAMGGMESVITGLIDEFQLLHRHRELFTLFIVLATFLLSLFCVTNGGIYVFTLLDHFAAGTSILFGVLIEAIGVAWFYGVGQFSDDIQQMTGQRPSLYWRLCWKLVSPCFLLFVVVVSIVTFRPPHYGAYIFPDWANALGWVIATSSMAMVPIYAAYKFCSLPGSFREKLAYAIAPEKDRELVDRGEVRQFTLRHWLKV
Type: cell-based
Method: (§1) Cells (1 × 10^6 cells/well) were seeded onto a 6-well plate and incubated for 24 h. Cells were then treated with drugs and incubated for 16 h. After the incubation period, cells were lysed in RIPA buffer supplemented with protease inhibitors (working concentrations: pepstatin A, 5 μg/mL; leupeptin, 10 μg/mL; aprotinin, 1.5 μg/mL; benzamidine, 0.1 μg/mL; PMSF, 0.1 mM) on ice. At 4°C, cell lysates were gently shaken for 15 min followed by centrifugation at 15,000 rpm for 15 min to pellet debris. The Pierce BCA protein assay kit (Thermo Fisher Scientific, Canada) was used to determine the protein concentration of the supernatant. To reach a concentration of 40 μg of protein per 20 μL, samples were diluted in fresh RIPA buffer with 12.5% Laemmli sample buffer and 2.5% β-Mercaptoethanol prior to being heated to 55°C. The protein was then loaded on a 7.5 or 10% SDS-PAGE gel and run at 100 V for approximately an hour or until the dye front reached the bottom of the gel. Next, protein was transferred to a PVDF membrane at 22 V for 16 h or 100 V for 1 h. Blots were blocked with LI-COR blocking buffer for 1 h and incubated for 1 h at room temperature with rabbit anti-GFP (1:1,000 dilution; Life Technologies, cat#A11122). After washing three times with TBST, blots were incubated with goat anti-rabbit IRDye-680RD secondary antibody (1:15,000; LI-COR, cat#926-68071). As a loading control, blots were incubated with mouse anti-GAPDH (1:5,000, Sigma-Aldrich, Canada, cat#G8795) prior to secondary antibody goat anti-mouse IRDye-800GR (1:5,000 dilution, Rockland, Limerick, PA, cat#610-132-007). All antibodies were diluted in LI-COR blocking buffer. Additionally, REVERT total protein staining (LI-COR, Lincoln, NE) was used as a loading control. […] Mature, fully glycosylated DAT (mDAT = 110 kDa) and immature, ER-resident DAT (iDAT = 75 kDa) were visualized using the Odyssey Imaging System (LI-COR, Lincoln, NE) and Image Studio Version 5.2 software (Supplementary Figure 1).
(§2) We next assessed whether drugs that increase DAT surface expression also increase total protein levels of DAT. Cells expressing YFP-HA-DAT were incubated with select test compounds and DAT protein levels were examined by western blot. The effects of the compounds were assessed on WT DAT and K590A DAT. The K590A mutant is a well-characterized ER-retained, trafficking-deficient DAT mutant ([Miranda et al., 2004]) that can be rescued by pharmacological chaperones ([Beerepoot et al., 2016]).
(§3) FIGURE 5 Effect of noribogaine, tetrahydroharmine, PAL-594, bicifadine, and RTI-20 on WT and K590A DAT expression. […] (B) Quantification of WT mDAT protein levels. […] (D) Quantification of K590A mDAT protein levels. […]
For `Cc1ccc(C(=O)C(C)NC(C)(C)C)cc1Cl` (centres unmarked) [RTI-20], the “mature WT DAT (mDAT) protein levels” value was “significantly increase”.

The compounds below were run against T2, K590A DAT (Homo sapiens, UniProt Q01959, K590A) (assay: Western blot of mature K590A DAT protein levels). Details: overnight treatment.
T2 construct: expressed in transfected cells; host or cells: HEK293
T2 sequence (Q01959 whole entry K590A): as the sequence (Q01959 whole entry) above, with K590A counted along it
Type: cell-based
Method: as §1, §2, §3
With `COc1ccc2c3c([nH]c2c1)C(C)NCC3` (centres unmarked) [Tetrahydroharmine, tetrahydroharmine] the “K590A DAT (mDAT) protein levels” value was “statistically significant effect”.
